Experiments:
CCK receptor (pancreas) = target: T1, CCK receptor (pancreas) (Rattus norvegicus, UniProt P30551); assay: CCK Receptor Binding (Pancreas), inhibition of 125I-CCK-8 binding; parameters: species or system rat (male Sprague-Dawley); conditions: rat pancreas membranes; 50 pM 125I-CCK-8; pH 6.5, 25° C., 2 hours
T1 construct: The whole pancreas was dissected free of fat tissue and was homogenized; from tissue; host or cells: whole pancreas of male Sprague-Dawley rats, membrane homogenate
T1 sequence (P30551 1-444): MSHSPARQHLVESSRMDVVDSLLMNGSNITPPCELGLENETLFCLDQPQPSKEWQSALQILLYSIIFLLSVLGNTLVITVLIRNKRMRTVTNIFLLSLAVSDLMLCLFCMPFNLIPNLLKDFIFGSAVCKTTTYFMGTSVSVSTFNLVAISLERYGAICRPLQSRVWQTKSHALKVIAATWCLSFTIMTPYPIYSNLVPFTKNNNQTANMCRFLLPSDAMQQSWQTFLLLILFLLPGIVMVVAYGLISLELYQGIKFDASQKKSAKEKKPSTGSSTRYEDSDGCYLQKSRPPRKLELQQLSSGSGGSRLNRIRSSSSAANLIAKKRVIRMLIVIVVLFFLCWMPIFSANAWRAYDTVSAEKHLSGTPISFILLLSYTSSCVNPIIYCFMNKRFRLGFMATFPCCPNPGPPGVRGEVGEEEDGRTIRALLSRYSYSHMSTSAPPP
Description: CCK-8 sulphated was radiolabelled with ^125 I-Bolton Hunter reagent (2000 Ci/mmole). Receptor binding was performed according to Chang and Lotti (Proc. Natl. Acad. Sci. 83, 4923-4926, 1986) with minor modifications.
Male Sprague-Dawley rats (150-200 g) were sacrificed by decapitation. The whole pancreas was dissected free of fat tissue and was homogenized in 25 volumes of ice-cold 10 mM N-2-hydroxyethyl-piperazine-N'-2-ethane sulphonic acid (HEPES) buffer with 0.1% soya bean trypsin inhibitor (pH 7.4 at 25° C.) with a Kinematica Polytron. The homogenates were centrifuged at 47,800 g for 10 min. Pellets were resuspended in 10 volumes of binding assay buffer (20mM (HEPES)), 1 mM ethylene glycol-bis-(β-aminoethylether-N,N'-tetraacetic acid) (EGTA), 5 mM MgCl2, 150 mM NaCl, bacitracin 0.25 mg/ml, soya bean trypsin inhibitor 0.1 mg/ml, and bovine serum albumin 2 mg/ml pH 6.5 at 25° C.) using a Teflon (trademark) homogenizer, 15 strokes at 500 rpm. The homogenate was further diluted in binding assay buffer to give a final concentration of 0.5 mg original wet weight/1 ml buffer. […] The radioactivity on the filters was counted with a LKB gamma counter. […]

CCK receptor (brain) = target: T2, CCK receptor (brain) (Cavia porcellus, UniProt H0VZC5); assay: CCK Receptor Binding (Brain), inhibition of 125I-CCK-8 binding; parameters: species or system guinea pig (male Hartley); conditions: guinea pig cortex membranes; 50 pM 125I-CCK-8; pH 6.5, 25° C., 2 hours
T2 construct: the cortex was removed and homogenized in 25 mL ice-cold 0.32M sucrose; from tissue; host or cells: cortex of male Hartley guinea pigs, P2 membrane pellet
T2 sequence (H0VZC5 entry or part of it): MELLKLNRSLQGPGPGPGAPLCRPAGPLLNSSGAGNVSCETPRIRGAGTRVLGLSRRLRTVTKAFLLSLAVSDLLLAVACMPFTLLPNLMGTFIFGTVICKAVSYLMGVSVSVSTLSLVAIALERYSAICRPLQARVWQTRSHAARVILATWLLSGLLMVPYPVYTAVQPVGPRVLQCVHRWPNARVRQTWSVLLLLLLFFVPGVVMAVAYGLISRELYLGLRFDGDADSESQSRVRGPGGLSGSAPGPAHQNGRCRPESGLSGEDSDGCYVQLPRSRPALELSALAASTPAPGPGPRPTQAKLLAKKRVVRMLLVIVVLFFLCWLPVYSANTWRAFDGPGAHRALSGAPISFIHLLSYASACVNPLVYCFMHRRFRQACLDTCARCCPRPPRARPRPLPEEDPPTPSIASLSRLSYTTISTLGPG
Description: CCK-8 sulphated was radiolabelled and the binding was performed according to the description for the pancreas method with minor modifications.
Male Hartley guinea pigs (300-500 g) were sacrificed by decapitation and the cortex was removed and homogenized in 25 mL ice-cold 0.32M sucrose. The homogenates were centrifuged at 1000 g for 10 minutes and the resulting supernatant was recentrifuged at 20,000 g for 20 minutes. The P2 pellet was resuspended in binding assay buffer (20 mM HEPES, 5 mM MgCl2, 0.25 mg/ml bacitracin, 1 mM EGTA pH 6.5 at 25° C.), using a Teflon (trademark) homogenizer (5 strokes at 500 rpm) to give a final concentration of 10 mg original wet weight/1.2 ml buffer. For the binding assay, 50 μl of buffer (for total binding) or unlabelled CCK-8 sulphated to give a final concentration of 1 μM (for nonspecific binding) or the compounds of Formula I (for determination of inhibition of ^125 I-CCK-8 binding) and 50 μl of 500 pM ^125 I-CCK-8 (i.e. final concentration of 50 pM) were added to 400 μl of the membrane suspensions in microfuge tubes. All assays were run in duplicate. The reaction mixtures were incubated at 25° C. for 2 hours and then the reaction was terminated by rapid filtration (Brandell 24 well cell harvester) on Whatman GF/C filters with 3×5 ml washes of cold 100 mM NaCl. The radioactivity on the filters was counted with a LKB gamma counter. […]

SMILES	IC50 (CCK receptor (pancreas)) [µM]	IC50 (CCK receptor (brain)) [µM]
CC(C)CN1C(=O)C(NC(=O)Nc2cccc(-c3nn[nH]n3)c2)N=C(c2ccc(=O)[nH]c2)c2ccccc21 (racemic) [Example 1, N-[3(R,S)-2,3-Dihydro-1-(2-methylpropyl)-2-oxo-5-(6-oxo-1,6-dihydropyridin-3-yl)-1H-1,4-benzodiazepin-3-yl]-N'-[3-(tetrazol-5-yl)phenyl]urea]	2.68	0.0192
CC(C)CN1C(=O)C(NC(=O)Nc2cccc(-c3nn[nH]n3)c2)N=C(c2cc[nH]c(=O)c2)c2ccccc21 (racemic) [Example 2, N-[3(R,S)-2,3-Dihydro-1-(2-methylpropyl)-2-oxo-5-(2-oxo-1,2-dihydropyridin-4-yl)-1H-1,4-benzodiazepin-3-yl]-N'-[3-(tetrazol-5-yl)phenyl]urea]	3.38	0.023

Source: patent US5478933A, “Benzodiazepine derivatives and their use as antagonists of cholecystokinin and/or gastrin receptors” (Merck Sharpe & Dohme Ltd., priority 1994, dated 1995)
